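Step 1: Grow cells in 96-well plates. Step 2: Expose to compound for 48 hours at 5 concentrations. Step 3: Interpolate endpoints linearly; if unreached, use highest concentration. TGI: concentration producing complete growth inhibition.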
Assays:
Assay in all cases: NCI anticancer screen, dose series, 48 h
[1] = test system: HL-60(TB) leukemia
[2] = test system: IGROV1 ovarian
[3] = test system: KM12 colon
[4] = test system: LOX IMVI melanoma
[5] = test system: SNB-75 CNS
[6] = test system: ACHN renal
[7] = test system: SF-268 CNS
[8] = test system: UACC-257 melanoma
[9] = test system: SK-MEL-28 melanoma
[10] = test system: NCI-H460 lung
[11] = test system: COLO 205 colon
[12] = test system: SK-MEL-2 melanoma
[13] = test system: RXF 393 renal
[14] = test system: 786-0 renal
[15] = test system: MDA-MB-435
[16] = test system: MOLT-4 leukemia
[17] = test system: HCC-2998 colon
[18] = test system: NCI-H226 lung
[19] = test system: HT29 colon
[20] = test system: SK-MEL-5 melanoma
[21] = test system: HCT-116 colon
[22] = test system: MCF7 breast
[23] = test system: A498 renal
[24] = test system: SR leukemia
[25] = test system: NCI-H522 lung
[26] = test system: OVCAR-5 ovarian
[27] = test system: OVCAR-3 ovarian
[28] = test system: SN12C renal
[29] = test system: OVCAR-8 ovarian
[30] = test system: U251 CNS
[31] = test system: OVCAR-4 ovarian
[32] = test system: MDA-MB-231 breast
[33] = test system: T-47D breast
[34] = test system: HOP-92 NSCLC
[35] = test system: SW-620 colon
[36] = test system: UACC-62 melanoma
[37] = test system: HOP-62 NSCLC
[38] = test system: CAKI-1 renal
[39] = test system: RPMI-8226 leukemia
[40] = test system: SF-539 CNS
[41] = test system: UO-31 renal
[42] = test system: PC-3 prostate
[43] = test system: TK-10 renal
[44] = test system: BT-549 breast
[45] = test system: EKVX NSCLC
[46] = test system: NCI-H23 lung
[47] = test system: MDA-N
[48] = test system: SNB-19 CNS
[49] = test system: CCRF-CEM leukemia
[50] = test system: A549 NSCLC
[51] = test system: K-562 leukemia
[52] = test system: SF-295 CNS
[53] = test system: DU-145 prostate
[54] = test system: HCT-15 colon
[55] = test system: NCI/ADR-RES ovarian
[56] = test system: M14 melanoma
[57] = test system: MALME-3M melanoma
[58] = test system: SK-OV-3 ovarian
[59] = test system: HS 578T breast

For CCN(CC)c1c(N(CC)CC)c(=O)c1=O, the TGI [1] was 7.58 µM, the TGI [2] was 8.01 µM and the TGI [3] was 48.4 µM. The TGI [4] was 25.8 µM, the TGI [5] was 62.6 µM and the TGI [6] was 21.1 µM. The TGI [7] was > 77 µM, the TGI [8] was 20.5 µM and the TGI [9] was 41.9 µM. For the same molecule, the TGI [10] was > 78.2 µM, the TGI [11] was 8.24 µM and the TGI [12] was 66.9 µM. It also gave a TGI [13] of 25.2 µM, a TGI [14] of 16.2 µM and a TGI [15] of 60.9 µM. It also gave a TGI [16] of 16.4 µM, a TGI [17] of 39.9 µM and a TGI [18] of 30.9 µM. The TGI [19] was 5.96 µM, the TGI [20] was 35.2 µM and the TGI [21] was 20.8 µM. The TGI [22] was 29.5 µM, the TGI [23] was 58.1 µM and the TGI [24] was > 100 µM. It also gave a TGI [25] of 4.86 µM, a TGI [26] of 37.2 µM and a TGI [27] of 25.1 µM. The TGI [28] was 24 µM, the TGI [29] was 27.6 µM and the TGI [30] was 55.6 µM. The TGI [31] was 46.3 µM, the TGI [32] was 15.8 µM and the TGI [33] was 10.4 µM. It also gave a TGI [34] of 11.4 µM, a TGI [35] of 20.1 µM and a TGI [36] of 45.7 µM. The TGI [37] was > 77.3 µM, the TGI [38] was 9.62 µM and the TGI [39] was 4.91 µM. It also gave a TGI [40] of 19 µM, a TGI [41] of 12 µM and a TGI [42] of 46.4 µM. The TGI [43] was 8.7 µM, the TGI [44] was 35.8 µM and the TGI [45] was 28.6 µM. The TGI [46] was 26.7 µM, the TGI [47] was 32.1 µM and the TGI [48] was > 89.6 µM. The TGI [49] was 18.9 µM, the TGI [50] was 43.7 µM and the TGI [51] was > 100 µM. For the same molecule, the TGI [52] was > 100 µM, the TGI [53] was 23.3 µM and the TGI [54] was 17 µM. It also gave a TGI [55] of 61.2 µM, a TGI [56] of 36.9 µM and a TGI [57] of 13.2 µM. For the same molecule, the TGI [58] was > 100 µM and the TGI [59] was 59.9 µM.

CCCCc1c(OC)cc(O)c2c1C(=O)c1[nH]c(C(=O)O)c(O)c(=O)c1C2=O was tested, and the TGI [1] was > 100 µM, the TGI [2] was 64.2 µM and the TGI [3] was > 100 µM. For the same molecule, the TGI [4] was > 100 µM, the TGI [5] was 27.5 µM and the TGI [6] was > 100 µM. For the same molecule, the TGI [7] was > 100 µM, the TGI [8] was 46.6 µM and the TGI [9] was > 100 µM. The TGI [10] was > 100 µM, the TGI [11] was 64.6 µM and the TGI [12] was 4.3 µM. The TGI [13] was 8.25 µM, the TGI [14] was 63.8 µM and the TGI [15] was > 100 µM. The TGI [16] was > 100 µM, the TGI [17] was > 100 µM and the TGI [18] was 23.6 µM. For the same molecule, the TGI [19] was > 100 µM, the TGI [21] was > 100 µM and the TGI [22] was > 100 µM. The TGI [24] was 29.3 µM, the TGI [25] was 9.94 µM and the TGI [26] was 65.3 µM. For the same molecule, the TGI [27] was 8.45 µM, the TGI [28] was > 100 µM and the TGI [29] was 28.8 µM. The TGI [30] was 17.6 µM, the TGI [31] was > 100 µM and the TGI [32] was 3.49 µM. For the same molecule, the TGI [33] was > 100 µM, the TGI [34] was > 100 µM and the TGI [35] was > 100 µM. For the same molecule, the TGI [36] was 6.96 µM, the TGI [37] was 9.29 µM and the TGI [38] was > 100 µM. For the same molecule, the TGI [39] was > 100 µM, the TGI [40] was 2.54 µM and the TGI [41] was 13.8 µM. The TGI [42] was > 100 µM, the TGI [43] was > 100 µM and the TGI [44] was 52.8 µM. The TGI [45] was > 100 µM, the TGI [46] was 20.3 µM and the TGI [47] was > 100 µM. The TGI [48] was 15.1 µM, the TGI [49] was > 100 µM and the TGI [50] was > 100 µM. For the same molecule, the TGI [51] was > 100 µM, the TGI [52] was > 100 µM and the TGI [53] was > 100 µM. For the same molecule, the TGI [54] was > 100 µM, the TGI [55] was 93.7 µM and the TGI [56] was 34.3 µM. It also gave a TGI [58] of 18.6 µM and a TGI [59] of 8.14 µM.

For CCC(=O)NC(Nc1cccc(F)c1C)(C(F)(F)F)C(F)(F)F, the TGI [1] was > 100 µM, the TGI [2] was > 100 µM and the TGI [3] was > 100 µM. The TGI [4] was > 100 µM, the TGI [5] was > 100 µM and the TGI [6] was > 100 µM. For the same molecule, the TGI [7] was > 100 µM, the TGI [8] was > 100 µM and the TGI [9] was > 100 µM. The TGI [10] was > 100 µM, the TGI [11] was > 100 µM and the TGI [12] was > 100 µM. For the same molecule, the TGI [13] was 80.7 µM, the TGI [14] was > 100 µM and the TGI [15] was > 100 µM. The TGI [16] was > 100 µM, the TGI [17] was > 100 µM and the TGI [18] was > 100 µM. The TGI [19] was > 100 µM, the TGI [20] was > 100 µM and the TGI [21] was > 100 µM. For the same molecule, the TGI [22] was > 100 µM, the TGI [23] was > 100 µM and the TGI [24] was > 100 µM. The TGI [25] was > 100 µM, the TGI [26] was > 100 µM and the TGI [27] was > 100 µM. For the same molecule, the TGI [29] was > 100 µM, the TGI [30] was > 100 µM and the TGI [32] was > 100 µM. The TGI [33] was > 100 µM, the TGI [34] was > 100 µM and the TGI [35] was > 100 µM. For the same molecule, the TGI [36] was > 100 µM, the TGI [37] was > 100 µM and the TGI [38] was > 100 µM. The TGI [39] was > 100 µM, the TGI [40] was > 100 µM and the TGI [41] was > 100 µM. For the same molecule, the TGI [42] was > 100 µM, the TGI [43] was > 100 µM and the TGI [44] was > 100 µM. For the same molecule, the TGI [45] was > 100 µM, the TGI [46] was > 100 µM and the TGI [47] was > 100 µM. The TGI [48] was > 100 µM, the TGI [49] was > 100 µM and the TGI [50] was > 100 µM. The TGI [51] was > 100 µM, the TGI [52] was > 100 µM and the TGI [53] was > 100 µM. For the same molecule, the TGI [54] was > 100 µM, the TGI [55] was > 100 µM and the TGI [56] was > 100 µM. The TGI [57] was > 100 µM, the TGI [58] was > 100 µM and the TGI [59] was > 100 µM.

Source: PubChem BioAssay (NCI)
